“And” between values parts separate entries of the source, which are not always exact repeats. Identical values can stand only once.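 Dose response: 5 concentrations. Exposure: 48 h. Format: 96-well plates. Endpoint: linear interpolation; highest concentration if not reached. GI50 = concentration required for 50% inhibition of growth. TGI: concentration producing complete growth inhibition.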
How the values were obtained:
Assay in all cases: NCI tumour cell line growth inhibition, 48 h
OVCAR-8 ovarian = system: OVCAR-8 ovarian
MOLT-4 leukemia = system: MOLT-4 leukemia
SNB-19 CNS = system: SNB-19 CNS
MALME-3M melanoma = system: MALME-3M melanoma
SNB-78 CNS = system: SNB-78 CNS
HOP-18 NSCLC = system: HOP-18 NSCLC
LOX IMVI melanoma = system: LOX IMVI melanoma
SN12C renal = system: SN12C renal
KM12 colon = system: KM12 colon
OVCAR-5 ovarian = system: OVCAR-5 ovarian
NCI-H460 lung = system: NCI-H460 lung
K-562 leukemia = system: K-562 leukemia
HT29 colon = system: HT29 colon
HOP-92 NSCLC = system: HOP-92 NSCLC
ACHN renal = system: ACHN renal
SNB-75 CNS = system: SNB-75 CNS
RXF-631 renal = system: RXF-631 renal
UO-31 renal = system: UO-31 renal
MDA-MB-435 = system: MDA-MB-435
SK-MEL-5 melanoma = system: SK-MEL-5 melanoma
SK-MEL-28 melanoma = system: SK-MEL-28 melanoma
T-47D breast = system: T-47D breast
HOP-62 NSCLC = system: HOP-62 NSCLC
M14 melanoma = system: M14 melanoma
SK-MEL-2 melanoma = system: SK-MEL-2 melanoma
MDA-N = system: MDA-N
MDA-MB-231 breast = system: MDA-MB-231 breast
HS 578T breast = system: HS 578T breast
EKVX NSCLC = system: EKVX NSCLC
M19-MEL melanoma = system: M19-MEL melanoma
SF-295 CNS = system: SF-295 CNS
OVCAR-3 ovarian = system: OVCAR-3 ovarian
SF-268 CNS = system: SF-268 CNS
CCRF-CEM leukemia = system: CCRF-CEM leukemia
MCF7 breast = system: MCF7 breast
PC-3 prostate = system: PC-3 prostate
DMS 273 small cell lung = system: DMS 273 small cell lung
RXF 393 renal = system: RXF 393 renal
KM20L2 colon = system: KM20L2 colon
XF 498 CNS = system: XF 498 CNS
SF-539 CNS = system: SF-539 CNS
NCI-H226 lung = system: NCI-H226 lung
CAKI-1 renal = system: CAKI-1 renal
SR leukemia = system: SR leukemia
RPMI-8226 leukemia = system: RPMI-8226 leukemia
A498 renal = system: A498 renal
HCT-116 colon = system: HCT-116 colon
UACC-257 melanoma = system: UACC-257 melanoma
DU-145 prostate = system: DU-145 prostate
NCI-H23 lung = system: NCI-H23 lung
SK-OV-3 ovarian = system: SK-OV-3 ovarian
DMS 114 small cell lung = system: DMS 114 small cell lung
HCC-2998 colon = system: HCC-2998 colon
OVCAR-4 ovarian = system: OVCAR-4 ovarian
HCT-15 colon = system: HCT-15 colon
TK-10 renal = system: TK-10 renal
DLD-1 colon = system: DLD-1 colon
HL-60(TB) leukemia = system: HL-60(TB) leukemia
IGROV1 ovarian = system: IGROV1 ovarian
786-0 renal = system: 786-0 renal
SW-620 colon = system: SW-620 colon
A549 NSCLC = system: A549 NSCLC
U251 CNS = system: U251 CNS
BT-549 breast = system: BT-549 breast
NCI/ADR-RES ovarian = system: NCI/ADR-RES ovarian
UACC-62 melanoma = system: UACC-62 melanoma

## O=C1C(CN(Cc2ccccc2)Cc2ccccc2)CCCC1CN(Cc1ccccc1)Cc1ccccc1 (stereo not drawn)
OVCAR-8 ovarian
  GI50: 22.9 µM and > 95.5 µM
  TGI: 43.1 µM and > 100 µM
MOLT-4 leukemia
  TGI: > 100 µM
SNB-19 CNS
  TGI: > 100 µM
MALME-3M melanoma
  GI50: 8.03 µM and 36.3 µM
  TGI: 14.3 µM and > 83 µM
SNB-78 CNS
  GI50: 28.1 µM and > 100 µM
  TGI: > 100 µM
HOP-18 NSCLC
  GI50: 5.67 µM and 48.5 µM
  TGI: 11.8 µM and > 100 µM
LOX IMVI melanoma
  GI50: 14.1 µM and > 77.1 µM
  TGI: 28.3 µM and > 100 µM
SN12C renal
  GI50: 13.1 µM and > 79 µM
  TGI: 25.8 µM and > 100 µM
KM12 colon
  GI50: 40.2 µM and > 100 µM
  TGI: > 100 µM
OVCAR-5 ovarian
  TGI: > 100 µM
NCI-H460 lung
  TGI: > 100 µM
K-562 leukemia
  GI50: 54.3 µM and > 86.3 µM
  TGI: > 100 µM
HT29 colon
  GI50: 25.7 µM and 59.3 µM
  TGI: 47.1 µM and > 100 µM
HOP-92 NSCLC
  TGI: > 52.1 µM and 82.5 µM
ACHN renal
  GI50: 15.9 µM and > 85.3 µM
  TGI: 25.7 µM and > 100 µM
SNB-75 CNS
  GI50: 31.1 µM and 76.2 µM
  TGI: 49.1 µM and > 100 µM
RXF-631 renal
  TGI: > 100 µM
UO-31 renal
  GI50: 16.9 µM and 47.6 µM
  TGI: 27.3 µM and > 100 µM
MDA-MB-435
  TGI: > 100 µM
SK-MEL-5 melanoma
  TGI: > 100 µM
SK-MEL-28 melanoma
  GI50: 21 µM and > 100 µM
  TGI: 38.8 µM and > 100 µM
T-47D breast
  TGI: > 100 µM
HOP-62 NSCLC
  TGI: > 100 µM
M14 melanoma
  GI50: 17.2 µM and 71.7 µM
  TGI: 31.1 µM and > 100 µM
SK-MEL-2 melanoma
  GI50: 19.6 µM and > 69.9 µM
  TGI: 36 µM and > 100 µM
MDA-N
  TGI: > 100 µM
MDA-MB-231 breast
  GI50: > 100 µM and 38.3 µM
  TGI: > 100 µM
HS 578T breast
  GI50: > 100 µM and 28.1 µM
  TGI: > 100 µM
EKVX NSCLC
  GI50: 36.8 µM and > 100 µM
  TGI: 59.9 µM and > 100 µM
M19-MEL melanoma
  TGI: 18.7 µM and > 100 µM
SF-295 CNS
  TGI: > 100 µM
OVCAR-3 ovarian
  GI50: 29.6 µM and > 100 µM
  TGI: 46.8 µM and > 100 µM
SF-268 CNS
  GI50: 33.3 µM and > 100 µM
  TGI: 53 µM and > 100 µM
CCRF-CEM leukemia
  TGI: 14.2 µM and > 100 µM
MCF7 breast
  GI50: 20.3 µM and > 100 µM
  TGI: > 100 µM
PC-3 prostate
  GI50: > 100 µM and 41.5 µM
  TGI: > 100 µM
DMS 273 small cell lung
  GI50: 17.1 µM and > 100 µM
  TGI: 33.3 µM and > 100 µM
RXF 393 renal
  GI50: 20.1 µM and > 100 µM
  TGI: > 100 µM
KM20L2 colon
  GI50: 17.6 µM and > 100 µM
  TGI: 35.6 µM and > 100 µM
XF 498 CNS
  TGI: 28.4 µM
SF-539 CNS
  GI50: 17.2 µM and 50.5 µM
  TGI: 33.1 µM and > 100 µM
NCI-H226 lung
  TGI: > 100 µM
CAKI-1 renal
  TGI: 11.5 µM and > 100 µM
SR leukemia
  GI50: 77.3 µM
  TGI: > 100 µM
RPMI-8226 leukemia
  TGI: > 100 µM
A498 renal
  TGI: 77.2 µM and > 100 µM
HCT-116 colon
  GI50: 14.6 µM and 70.3 µM
  TGI: 21.5 µM and > 100 µM
UACC-257 melanoma
  GI50: 27.9 µM and > 100 µM
  TGI: 49.1 µM and > 100 µM
DU-145 prostate
  TGI: > 100 µM
NCI-H23 lung
  GI50: 32.2 µM and > 100 µM
  TGI: 50 µM and > 100 µM
SK-OV-3 ovarian
  TGI: > 77 µM and 97.5 µM
DMS 114 small cell lung
  TGI: 10.3 µM and > 100 µM
HCC-2998 colon
  TGI: > 100 µM
OVCAR-4 ovarian
  GI50: 20 µM and > 79.8 µM
  TGI: 36.6 µM and > 100 µM
HCT-15 colon
  GI50: 14.2 µM and > 100 µM
  TGI: 21.3 µM and > 100 µM
TK-10 renal
  GI50: 14.7 µM and > 100 µM
  TGI: 28.3 µM and > 100 µM
DLD-1 colon
  TGI: 10.4 µM and > 100 µM
HL-60(TB) leukemia
  TGI: 12 µM and > 100 µM
IGROV1 ovarian
  TGI: > 100 µM
786-0 renal
  GI50: 16.8 µM and 55.1 µM
  TGI: 32.9 µM and > 100 µM
SW-620 colon
  GI50: > 100 µM
  TGI: > 100 µM
A549 NSCLC
  TGI: > 100 µM
U251 CNS
  GI50: 41.7 µM and > 100 µM
  TGI: > 100 µM
BT-549 breast
  TGI: > 100 µM
NCI/ADR-RES ovarian
  TGI: > 100 µM
UACC-62 melanoma
  GI50: 29.2 µM and > 100 µM
  TGI: 45.2 µM and > 100 µM
